Experimental data published in US6133292A, “Diaryl-5-alkyl-5-methyl-2-(5H)-furanones as selective cyclooxygenase-2-inhibitors” (Merck Frosst Canada & Co., priority 1998, dated 2000).

Tests used:
COX-1 [1] = molecular target: T1, COX-1 (Homo sapiens, UniProt P23219); experiment: Assay of COX-1 activity from U937 cell microsomes; format: biochemical; design: Assay of COX-1 Activity from U937 cell microsomes; endogenous in cells; host or cells: U937 cells, 100,000 x g microsomal fraction; conditions: read-out: U937 Cox-1 (IC50, inhibition of PGE2 production)
T1 sequence (P23219 24-599): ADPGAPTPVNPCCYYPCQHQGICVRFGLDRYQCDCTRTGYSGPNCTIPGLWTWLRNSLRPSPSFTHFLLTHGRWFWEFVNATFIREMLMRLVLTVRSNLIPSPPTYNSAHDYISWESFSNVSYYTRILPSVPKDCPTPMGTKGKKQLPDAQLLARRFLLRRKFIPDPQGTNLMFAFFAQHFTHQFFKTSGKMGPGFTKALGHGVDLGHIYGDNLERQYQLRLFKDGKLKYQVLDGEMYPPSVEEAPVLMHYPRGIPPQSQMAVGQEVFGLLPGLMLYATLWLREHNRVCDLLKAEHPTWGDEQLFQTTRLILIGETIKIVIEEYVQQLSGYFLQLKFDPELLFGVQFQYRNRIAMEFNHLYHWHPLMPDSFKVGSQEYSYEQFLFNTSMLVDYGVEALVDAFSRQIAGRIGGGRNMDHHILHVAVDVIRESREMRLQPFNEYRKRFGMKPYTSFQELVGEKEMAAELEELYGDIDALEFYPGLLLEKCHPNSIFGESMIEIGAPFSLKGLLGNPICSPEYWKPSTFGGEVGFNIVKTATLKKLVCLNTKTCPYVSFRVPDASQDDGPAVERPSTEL
Description: Assay of COX-1 Activity from U937 cell microsomes
U 937 cells are pelleted by centrifugation at 500 x g for 5 min and washed once with phosphate-buffered saline and repelleted. Cells are resuspended in homogenization buffer consisting of 0.1 M Tris-HCl, pH 7.4, 10 mM EDTA, 2 μg/ml leupeptin, 2 μg/ml soybean trypsin inhibitor, 2 μg/ml aprotinin and 1 mM phenyl methyl sulfonyl fluoride. The cell suspension is sonicated 4 times for 10 sec and is centrifuged at 10,000 x g for 10 min at 4° C. The supernatant is centrifuged at 100,000 x g for 1 hr at 4° C. The 100,000 x g microsomal pellet is resuspended in 0.1 M Tris-HCl, pH 7.4, 10 mM EDTA to approximately 7 mg protein/mil and stored at -80° C.
Microsomal preparations are thawed immediately prior to use, subjected to a brief sonication, and then diluted to a protein concentration of 125 μg/ml in 0.1 M Tris-HCl buffer, pH 7.4 containing 10 mM EDTA, 0.5 mM phenol, 1 mM reduced glutathione and 1 μM hematin. Assays are performed in duplicate in a final volume of 250 μl. Initially, 5 μl of DMSO vehicle or drug in DMSO are added to 20 μl of 0.1 M Tris-HCl buffer, pH 7.4 containing 10 mM EDTA in wells of a 96-deepwell polypropylene titre plate. 200 μl of the microsomal preparation are then added and pre-incubated for 15 min at room temperature before addition of 25 μl of […] arachidonic acid in […] Tris-HCl and 10 mM EDTA, pH 7.4. Samples are incubated for 40 min at room temperature and the reaction is stopped by the addition of 25 μl of 1 N HCl. Samples are neutralized with 25 μl of 1 N NaOH prior to quantitation of PGE2 content by radioimmunoassay (Dupont-NEN or Amersham assay kits). Cyclooxygenase activity is defined as the difference between PGE2 levels in samples incubated in the presence of arachidonic acid and ethanol vehicle.
(§1) Compounds of the present invention are inhibitors of COX-2 and are thereby useful in the treatment of COX-2 mediated diseases as enumerated above. The activities of the compounds against cyclooxygenase may be seen in the representative results shown below. In the assay, inhibition is determined by measuring the amount of prostaglandin E2 (PGE2) synthesized in the presence of arachidonic acid, COX-1 or COX-2 and a putative inhibitor. The IC50 values represent the concentration of putative inhibitor required to lower PGE2 synthesis to 50% of that obtained as compared to the uninhibited control.

[2] = Pharmacokinetics in rats (half-life); format: in vivo, rat (male Sprague Dawley); conditions: rat, blood, read-out: T 1/2 in Rats (converted)
Source text: Per Os Pharmacokinetics in Rats--Procedure:
The animals are housed, fed and cared for according to the Guidelines of the Canadian Council on Animal Care. Male Sprague Dawley rats (325-375 g) are fasted overnight prior to each PO blood level study. The rats are placed in the restrainer one at a time and the box firmly secured. The zero blood sample is obtained by nicking a small (1 mm or less) piece off the tip of the tail. The tail is then stroked with a firm but gentle motion from the top to the bottom to milk out the blood. Approximately 1 mL of blood is collected into a heparirnized vacutainer tube.
Compounds are prepared as required, in a standard dosing volume of 10 mL/kg, and administered orally by passing a 16 gauge, 3" gavaging needle into the stomach. Subsequent bleeds are taken in the same manner as the zero bleed except that there is no need to nick the tail again. The tail is cleaned with a piece of gauze and milked/stroked as described above into the appropriately labelled tubes.
Immediately after sampling, blood is centrifuged, separated, put into clearly marked vials and stored in a freezer until analysed. Typical time points for determination of rat blood levels after PO dosing are 0, 15 min, 30 min, 1 h, 2 h, 4 h, and 6 h.
After the 4 hr time point bleed, food is provided to the rats ad libitum. Water is provided at all times during the study.
The following vehicles may be used in PO rat blood level determinations:
Compounds for PO blood levels can be in suspension form. For better dissolution, the solution can be placed in a sonicator for approximately 5 minutes.
For analysis, aliquots are diluted with an equal volume of acetonitrile and centrifuged to remove protein precipitate. The supernatant is injected directly onto a C-18 HPLC column with UV detection. Quantitation is done relative to a clean blood sample spiked with a known quantity of drug.
Intravenous Pharmacokinetics in Rats--Procedure
The animals are housed, fed and cared for according to the Guidelines of the Canadian Council on Animal Care. Male Sprague Dawley (325-375 g) rats are placed in plastic shoe box cages with a suspended floor, cage top, water bottle and food. The compound is prepared as required, in a standard dosing volume of 1 mL/kg.
Rats are bled for the zero blood sample and dosed under CO2 sedation. The rats, one at a time, are placed in a primed CO2 chamber and taken out as soon as they have lost their righting reflex. The rat is then placed on a restraining board, a nose cone with CO2 delivery is placed over the muzzle and the rat restrained to the board with elastics. With the use of forceps and scissors, the jugular vein is exposed and the zero sample taken, followed by a measured dose of compound which is injected into the jugular vein. Light digital pressure is applied to the injection site, and the nose cone is removed. The time is noted. This constitutes the zero time point.
The 5 min bleed is taken by nicking a piece (1-2 mm) off the tip of the tail. The tail is then stroked with a firm but gentle motion from the top of the tail to the bottom to milk the blood out of the tail. Approximately 1 mL of blood is collected into a heparinized collection vial. Subsequent bleeds are taken in the same fashion, except that there is no need to nick the tail again. The tail is cleaned with a piece of gauze and bled, as described above, into the appropriate labelled tubes. Typical time points for determination of rat blood levels after I.V. dosing are either a) 0, 5 min, 15 min, 30 min, 1 h, 2 h, 6 h, or b) 0, 5 min, 30 min, 1 h, 2 h, 4 h, 6 h.
The following vehicles may be used in IV rat blood level determinations:
DMSO (dimethylsulfoxide): Restricted to a dose volume of 0.1 mL per animal
PEG 200: Not more than 60% mixed with 40% sterile water --1 mL/kg
With Dextrose, either sodium bicarbonate or sodium carbonate can be added if the solution is cloudy. […]

COX-1 [3] = molecular target: T1, COX-1; experiment: Human whole blood assay, COX-1 (clotting-induced TxB2 production); format: cell-based; design: platelets in whole blood contain a large amount of the COX-1 enzyme; from tissue; host or cells: fresh human whole blood without anticoagulant, platelets; conditions: clotting-induced TxB2, 1 hour at 37° C, read-out: HWB Cox-1 (IC50)
Description: (§2) Human whole blood provides a protein and cell-rich milieu appropriate for the study of biochemical efficacy of anti-inflammatory compounds such as selective COX-2 inhibitors. […] This is consistent with the observation that COX-2 inhibitors have no effect on PGE2 production in normal blood. These inhibitors are active only after incubation of human whole blood with LPS, which induces COX-2. This assay can be used to evaluate the inhibitory effect of selective COX-2 inhibitors on PGE2 production. As well, platelets in whole blood contain a large amount of the COX-1 enzyme. Immediately following blood clotting, platelets are activated through a thrombin-mediated mechanism. This reaction results in the production of thromboxane B2 (TXB2) via activation of COX-1. Thus, the effect of test compounds on TxB2 levels following blood clotting can be examined and used as an index for COX-1 activity. Therefore, the degree of selectivity by the test compound can be determined by measuring the levels of PGE2 after LPS induction (COX-2) and TxB2 following blood clotting (COX-1) in the same assay.
B. COX-1 (Clotting-induced TxB2 production)
Fresh blood is collected into vacutainers containing no anticoagulants. […] The tubes are vortexed and incubated at 37° C. for 1 hour to allow blood to clot. At the end of incubation, serum is obtained by centrifugation (12,000 x g for 5 min.). A 100 μL aliquot of serum is mixed with 400 μL of methanol for protein precipitation. The supernatant is obtained and is assayed for TxB2 using a enzyme immunoassay kit (Cayman, #519031) according to the manufacturer's instruction. […]

COX-2 = molecular target: T2, COX-2 (Homo sapiens, UniProt P35354); experiment: Human whole blood assay, COX-2 (LPS-induced PGE2 production); format: cell-based; design: incubation of human whole blood with LPS, which induces COX-2; from tissue; host or cells: fresh heparinized human whole blood from male and female volunteers, LPS-stimulated; conditions: 24 hours at 37° C, read-out: HWB Cox-2 (IC50, inhibition of PGE2 production)
T2 sequence (P35354 18-604): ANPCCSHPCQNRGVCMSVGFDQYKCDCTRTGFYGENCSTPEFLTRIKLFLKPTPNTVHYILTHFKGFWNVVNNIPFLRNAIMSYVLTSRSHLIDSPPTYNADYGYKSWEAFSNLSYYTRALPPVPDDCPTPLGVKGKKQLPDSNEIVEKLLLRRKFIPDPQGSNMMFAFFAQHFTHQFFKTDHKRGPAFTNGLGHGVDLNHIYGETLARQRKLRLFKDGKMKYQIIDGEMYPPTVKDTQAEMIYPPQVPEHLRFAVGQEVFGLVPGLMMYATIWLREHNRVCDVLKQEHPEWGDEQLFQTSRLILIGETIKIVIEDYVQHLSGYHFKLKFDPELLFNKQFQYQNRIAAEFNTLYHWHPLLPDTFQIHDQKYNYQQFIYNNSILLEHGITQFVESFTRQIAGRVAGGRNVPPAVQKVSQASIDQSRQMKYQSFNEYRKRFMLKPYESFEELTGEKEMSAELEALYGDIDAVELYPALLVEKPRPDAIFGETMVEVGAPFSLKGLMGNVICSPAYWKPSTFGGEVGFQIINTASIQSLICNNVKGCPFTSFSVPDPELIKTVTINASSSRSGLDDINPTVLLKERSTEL
Description: as §2
A. COX-2 (LPS-induced PGE9 production)
Fresh blood is collected in heparinized tubes by venipuncture from both male and female volunteers. The subjects have no apparent inflammatory conditions and have not taken any NSAIDs for at least 7 days prior to blood collection. Plasma is immediately obtained from a 2 mL blood aliquot to use as blank (basal levels of PGE2). The remaining blood is incubated with LPS (100 μg/ml final concentration, Sigma Chem, #L-2630 from E. coli; diluted in 0.1% BSA (Phosphate buffered saline) for 5 minutes at room temperature. Five hundred μL aliquots of blood are incubated with either 2 μL of vehicle (DMSO) or 2 μL of a test compound at final concentrations varying from 10 nM to 30 μM for 24 hours at 37° C. At the end of the incubation, the blood is centrifuged at 12,000 x g for 5 minutes to obtain plasma. A 100 μL aliquot of plasma is mixed with 400 μL of methanol for protein precipitation. The supernatant is obtained and is assayed for PGE2 using a radioimmunoassay kit (Amersham, RPA#530) after conversion of PGE2 to its methyl oximate derivative according to the manufacturer's procedure.
as §1

## CC1(C)OC(=O)C(c2ccc(F)c(F)c2)=C1c1ccc(S(C)(=O)=O)cc1 [Compound T3-2, 3-(3,4-difluorophenyl)-5,5-dimethyl-4-[4-(methylsulfonyl)phenyl]-2,5-dihydro-2-furanone, reference compound]
COX-1 [1]
  IC50: 10 to 30 µM
[2]
  half-life: > 24 h
COX-1 [3]
  IC50: > 30 µM

## CCC1(C)OC(=O)C(c2ccccc2)=C1c1ccc(S(C)(=O)=O)cc1 (stereo not drawn) [a, 5-ethyl-5-methyl-4-[4-(methylsulfonyl)phenyl]-3-phenyl-2,5-dihydro-2-furanone]
COX-1 [1]
  IC50: 3 to 10 µM
COX-1 [3]
  IC50: > 30 µM
COX-2
  IC50: < 0.37 µM

## CCC1(C)OC(=O)C(c2cccc(F)c2)=C1c1ccc(S(C)(=O)=O)cc1 (stereo not drawn) [f, 5-ethyl-3-(3-fluorophenyl)-5-methyl-4-[4-(methylsulfonyl)phenyl]-2,5-dihydro-2-furanone]
COX-1 [1]
  IC50: > 10 µM
COX-1 [3]
  IC50: > 30 µM
COX-2
  IC50: 0.48 µM
